Measured values reported in patent US20240425479A1, “HALO-SUBSTITUTED AMINO AZA-HETEROARYL COMPOUNDS AS INHIBITORS OF THE HAEMATOPOIETIC PROGENITOR KINASE 1 (HPK1)” (priority 2021, published 2024).

Target: T1, Recombinant (1-346) HPK1 (h) (Homo sapiens, UniProt Q92918)
T1 construct: Recombinant (1-346) HPK1 (h) is incubated with 8 mM MOPS pH 7.0
T1 sequence (Q92918 1-346): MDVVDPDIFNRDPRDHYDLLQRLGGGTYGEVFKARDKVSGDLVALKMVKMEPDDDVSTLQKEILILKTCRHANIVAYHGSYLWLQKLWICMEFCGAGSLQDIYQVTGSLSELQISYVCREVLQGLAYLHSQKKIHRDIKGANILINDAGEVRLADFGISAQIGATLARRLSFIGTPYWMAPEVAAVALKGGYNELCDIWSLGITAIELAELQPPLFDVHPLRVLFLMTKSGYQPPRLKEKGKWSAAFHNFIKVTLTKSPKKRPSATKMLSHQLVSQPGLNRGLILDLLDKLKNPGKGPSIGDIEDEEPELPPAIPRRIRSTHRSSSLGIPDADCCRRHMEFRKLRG
Assay: HPK1 human STE kinase enzymatic radiometric assay
Type: biochemical
Settings: read-out: HPK1 IC50 nM Range
How it was run: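 Compounds in 3-fold, 9-point serial dilution; kinase (residues 1-346) phosphorylates myelin basic protein (0.33 mg/mL) using [gamma-33P]-ATP at pH 7.0 (MOPS, EDTA, Mg acetate) for 40 min, room temperature. Acid-quenched mixture filtered onto P30 mats; incorporated radioactivity read by scintillation counting.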

IC50 [nM]	SMILES
0.1 to 10	Cc1c[nH]c(=O)c2c(F)cc(-c3nc(-c4ccc(C5CCOCC5)c(CN(C)C)c4)c(F)nc3N)cc12 [Example I-167, 6-(3-amino-6-(3-((dimethylamino)methyl)-4-(tetrahydro-2H-pyran-4-yl)phenyl)-5-fluoropyrazin-2-yl)-8-fluoro-4-methylisoquinolin-1(2H)-one]
11 to 100	CCN(C)Cc1cc(-c2nc(-c3ccc4c(=O)[nH]cc(C)c4c3)c(N)nc2F)cc(C)c1OC [Example I-299, 6-(3-amino-6-(3-((ethyl(methyl)amino)methyl)-4-methoxy-5-methylphenyl)-5-fluoropyrazin-2-yl)-4-methylisoquinolin-1(2H)-one]
0.1 to 10	Cc1c[nH]c(=O)c2ccc(-c3nc(-c4ccc(N5CCOCC5)c(CN5CCCC5)c4)c(F)nc3N)cc12 [Example I-203, 6-(3-amino-5-fluoro-6-(4-morpholino-3-(pyrrolidin-1-ylmethyl)phenyl)pyrazin-2-yl)-4-methylisoquinolin-1(2H)-one]
0.1 to 10	Cc1[nH]c(=O)c2c(F)cc(-c3nc(-c4ccc(N5CCN(C(C)C)CC5)cc4)c(F)nc3N)cc2c1Cl [Example I-102, 6-(3-amino-5-fluoro-6-(4-(4-isopropylpiperazin-1-yl)phenyl)pyrazin-2-yl)-4-chloro-8-fluoro-3-methylisoquinolin-1(2H)-one]
0.1 to 10	Nc1nc(F)c(-c2ccc(C3CCOCC3)c(CN3CCCC3)c2)nc1-c1ccc2c(c1)CCNC2=O [Example I-147, 6-(3-amino-5-fluoro-6-(3-(pyrrolidin-1-ylmethyl)-4-(tetrahydro-2H-pyran-4-yl)phenyl)pyrazin-2-yl)-3,4-dihydroisoquinolin-1(2H)-one]
0.1 to 10	COc1ccc(-c2nc(-c3ccc4c(c3)CCNC4=O)c(N)nc2F)cc1C(C)N(C)C (centres unmarked) [Example I-290, 6-(3-amino-6-(3-(1-(dimethylamino)ethyl)-4-methoxyphenyl)-5-fluoropyrazin-2-yl)-3,4-dihydroisoquinolin-1(2H)-one]
11 to 100	Cc1[nH]c(=O)c2ccc(-c3nc(-c4ccc(N5CC6(CN(C)CCO6)C5)cc4)c(F)nc3N)cc2c1F [Example I-123, 6-(3-amino-5-fluoro-6-(4-(8-methyl-5-oxa-2,8-diazaspiro[3.5]nonan-2-yl)phenyl)pyrazin-2-yl)-4-fluoro-3-methylisoquinolin-1(2H)-one]
0.1 to 10	CN(C)Cc1cc(-c2nc(-c3ccc4c(c3)CCNC4=O)c(N)nc2F)ccc1OCC1CCOCC1 [Example I-178, 6-(3-amino-6-(3-((dimethylamino)methyl)-4-((tetrahydro-2H-pyran-4-yl)methoxy)phenyl)-5-fluoropyrazin-2-yl)-3,4-dihydroisoquinolin-1(2H)-one]
11 to 100	CN(C)[C@@H]1CCOc2ccc(-c3nc(-c4cc(F)c5c(c4)CCNC5=O)c(N)nc3F)cc21 [Example I-289, (R)-6-(3-amino-6-(4-(dimethylamino)chroman-6-yl)-5-fluoropyrazin-2-yl)-8-fluoro-3,4-dihydroisoquinolin-1(2H)-one]
0.1 to 10	CN(C)Cc1cc(-c2nc(-c3cc4c(F)c[nH]c(=O)c4cc3F)c(N)nc2F)ccc1C1CCOCC1 [Example I-143, 6-(3-amino-6-(3-((dimethylamino)methyl)-4-(tetrahydro-2H-pyran-4-yl)phenyl)-5-fluoropyrazin-2-yl)-4,7-difluoroisoquinolin-1(2H)-one]
0.1 to 10	COCCN(C)Cc1cc(-c2nc(-c3cc4c(cc3F)C(=O)NCC4)c(N)nc2F)ccc1C1CCOCC1 [Example I-175, 6-(3-amino-5-fluoro-6-(3-(((2-methoxyethyl)(methyl)amino)methyl)-4-(tetrahydro-2H-pyran-4-yl)phenyl)pyrazin-2-yl)-7-fluoro-3,4-dihydroisoquinolin-1(2H)-one]
11 to 100	CN(C)Cc1cccc(-c2nc(-c3cc(F)c4c(c3)CCNC4=O)c(N)nc2F)c1 [Example I-279, 6-(3-amino-6-(3-((dimethylamino)methyl)phenyl)-5-fluoropyrazin-2-yl)-8-fluoro-3,4-dihydroisoquinolin-1(2H)-one]
0.1 to 10	Cc1cc(-c2nc(-c3ccc4c(=O)[nH]cc(F)c4c3)c(N)nc2F)cc2c1CCN(C)C2 [Example I-296, 6-(3-amino-6-(2,5-dimethyl-1,2,3,4-tetrahydroisoquinolin-7-yl)-5-fluoropyrazin-2-yl)-4-fluoroisoquinolin-1(2H)-one]
> 1000	Cc1c[nH]c(=O)c2ccc(-c3nc(-c4ccc(N5CCN(CCC(F)F)CC5)cc4)c(F)nc3N)cc12 [Example I-87, 6-(3-amino-6-(4-(4-(3,3-difluoropropyl)piperazin-1-yl)phenyl)-5-fluoropyrazin-2-yl)-4-methylisoquinolin-1(2H)-one]
11 to 100	Nc1nc(F)c(-c2ccc(N3CCOCC3)c(CN3CCC3)c2F)nc1-c1ccc2c(c1)CCNC2=O [Example I-243, 6-(3-amino-6-(3-(azetidin-1-ylmethyl)-2-fluoro-4-morpholinophenyl)-5-fluoropyrazin-2-yl)-3,4-dihydroisoquinolin-1(2H)-one]
11 to 100	CN(C)Cc1c(N2CCOCC2)ccc(-c2nc(-c3ccc4c(c3)CCNC4=O)c(N)nc2F)c1F [Example I-240]
11 to 100	Nc1nc(F)c(-c2ccc(OC3CCOCC3)c(CN3CCC3)c2)nc1-c1ccc2c(c1)CCNC2=O [Example I-208, 6-(3-amino-6-(3-(azetidin-1-ylmethyl)-4-((tetrahydro-2H-pyran-4-yl)oxy)phenyl)-5-fluoropyrazin-2-yl)-3,4-dihydroisoquinolin-1(2H)-one]
0.1 to 10	Nc1nc(F)c(-c2ccc(C3CCOCC3)c(CN3CCCC3)c2)nc1-c1cc(F)c2c(c1)CCNC2=O [Example I-149, 6-(3-amino-5-fluoro-6-(3-(pyrrolidin-1-ylmethyl)-4-(tetrahydro-2H-pyran-4-yl)phenyl)pyrazin-2-yl)-8-fluoro-3,4-dihydroisoquinolin-1(2H)-one]
0.1 to 10	CN(C)Cc1cc(-c2nc(-c3ccc4c(=O)[nH]cc(Cl)c4c3)c(N)nc2F)ccc1N1CCOCC1 [Example I-153, 6-(3-amino-6-(3-((dimethylamino)methyl)-4-morpholinophenyl)-5-fluoropyrazin-2-yl)-4-chloroisoquinolin-1(2H)-one]
11 to 100	CCN(C)Cc1cc(-c2nc(-c3ccc4c(=O)[nH]cc(C)c4c3)c(N)nc2F)ccc1OC [Example I-301, 6-(3-amino-6-(3-((ethyl(methyl)amino)methyl)-4-methoxyphenyl)-5-fluoropyrazin-2-yl)-4-methylisoquinolin-1(2H)-one]
0.1 to 10	CN(C)Cc1cc(-c2nc(-c3ccc4c(=O)[nH]cc(F)c4c3)c(N)nc2F)ccc1OC(F)F [Example I-270, 6-(3-amino-6-(4-(difluoromethoxy)-3-((dimethylamino)methyl)phenyl)-5-fluoropyrazin-2-yl)-4-fluoroisoquinolin-1(2H)-one]
0.1 to 10	CN(C)[C@@H]1CCOc2ccc(-c3nc(-c4ccc5c(c4)CCNC5=O)c(N)nc3F)cc21 [Example I-287, (R)-6-(3-amino-6-(4-(dimethylamino)chroman-6-yl)-5-fluoropyrazin-2-yl)-3,4-dihydroisoquinolin-1(2H)-one]
0.1 to 10	CN(C)Cc1cc(-c2nc(-c3ccc4c(=O)[nH]cc(F)c4c3)c(N)nc2F)ccc1N1CCOCC1 [Example I-89, 6-(3-amino-6-(3-((dimethylamino)methyl)-4-morpholinophenyl)-5-fluoropyrazin-2-yl)-4-fluoroisoquinolin-1(2H)-one]
